# {P} = phosphate
# Legend:
# [1] = test system: Cloudman S91 mouse melanoma cells; assay: Melanin content of Cloudman S91 melanoma cells; type: cell-based; settings: for increase in melanin content: variations of the 9-mer, cells not given; for melanogenic activity: with 5′ phosphate, FIG. 18
# Procedure: (§1) The induction of melanogenesis in Cloudman S91 mouse melanoma cells by a five-nucleotide oligomer CATAC (SEQ ID NO: 6) and a nine-nucleotide oligomer, GAGTATGAG (SEQ ID NO: 1) was examined. Duplicates of Cloudman S91 murine melanoma cells were incubated with either 100 μM oligo or an equal volume of diluent (H2O) for 5 days. The cells were then collected, counted, and an equal number of cells were pelleted for melanin analysis. […] Variations of this oligonucleotide were evaluated: a scrambled 9-mer (TAGGAGGAT; SEQ ID NO: 2) and two truncated versions, a 7-mer (AGTATGA; SEQ ID NO: 3) and second 5-mer (GTATG; SEQ ID NO: 4). […] The truncated versions (SEQ ID NOs: 3 and 4) were also active, inducing 640% and 670% increases, respectively.
# Cultures of Cloudman S91 murine melanoma cells were treated for 5 days with SEQ ID NO: 1, SEQ ID NO: 6, pTpT as a positive control, or an equal volume of diluent as a negative control. […] SEQ ID NO: 6 produced a slight increase in melanin, to 165+/−77% of control levels. SEQ ID NO: 1 stimulated melanin content to an average of 600+/−260% of control levels.
# pTpT, shown previously to stimulate pigmentation in these cells, was used as a reference treatment, and diluent alone was used as a negative control. After five days of treatment with the oligonucleotides, the cells were collected, counted, and an equal number of cells were pelleted for melanin analysis. […] SEQ ID NO: 5, representing the telomere over-hang sequence, also at 10 μM, increased the melanin level to 10 times that of control cells.
# S91 cells were cultured in the presence of diluent alone, pTpT p9mer (SEQ ID NO: 1), p7mer (AGTATGA; SEQ ID NO: 7) or p5mer #2 (SEQ ID NO: 4). […] Both SEQ ID NOS: 4 and 7 stimulated a 7–8 fold increase in melanin.
# S91 cells were cultured for 5 days in the presence of the thymidine dinucleotides or SEQ ID NO: 1 with or without a 5′ phosphate or diluent alone as a negative control.
# Cultures of S91 mouse melanoma cells (100,000 cells/38 cm^2) were treated with 100 μM pTpT or phosphorothioate pTpT (pTspT) (FIG. 22) or 40 μM 11mer-1 or the phosphorothioate 11mer-1 (11mer-1-S) (FIG. 23) for 6 days and were then collected, counted and assayed for melanin content.
# Duplicate cultures of S91 cells (100,000 cells/39 cm^2) were either sham-irradiated or irradiated with 5 mJ/cm^2 solar-simulated light from a 1 kW xenon arc solar-simulator (XMN 1000-21, Optical Radiation, Azuza, Calif.) metered at […] using a research radiometer (model IL1700A, International Light, Newburyport, Mass.). Two sham-irradiated plates were then supplemented with 100 μM pTspT and two irradiated cultures were similarly treated with pTspT. After one week, cells were collected, counted and analyzed for melanin content by dissolving the cell pellets in 1 N NaOH and measuring the optical density at […]. […] However, this response was blocked by the addition of pTspT (FIG. 24). In addition, the constitutive pigmentation of these cells was reduced by the pTspT in the sham-irradiated cultures, similar to the data presented in FIGS. 22 and 23.
# [2] = test system: Human squamous carcinoma cell line SCC12F cells; assay: Cell growth / cell yield of SCC12F cells (Coulter counter); type: cell-based; settings: after 2 days; FIG. 14
# Procedure: Human squamous carcinoma cell line SCC12F cells were maintained in primary keratinocyte medium (300 ml DME, 100 ml F-12 nutrient supplement, 50 ml 10× adenine, 50 ml fetal bovine serum, 5 ml penicillin/streptomycin stock, and 0.5 ml of 10 μg/ml epidermal growth factor and hydrocortisone to final concentration of 1.4 μg/ml) and dosed with either water (diluent), 100 μM pTpT (T2, Midland Certified Reagent Company, Midland, Tex.) or 100 μM pdApdA (A2). Cells were harvested before dosing (day 0), and 1, 3, 4, and 5 days after dosage, and were counted by Coulter™ counter. After harvesting, the cells were processed for total RNA isolation and were analyzed by Northern blot. Addition of a control deoxyadenine dinucleotide (pdApdA), a compound very similar to pTpT but not readily dimerized by UV irradiation, and therefore rarely excised during the course of UV-induced DNA repair, has no effect.
# In a second experiment, SCC12F cells were cultured as described above. Two or three days after seeding, the preconfluent cultures were given fresh medium supplemented with either 100 μM T2 or diluent as a control. Cells were collected daily by trypsinization and counted by Coulter™ counter. The cell yield in cultures treated with T2 was reduced by […] compared to that of paired control cultures after five days (FIG. 2). This corresponds to 2.3 population doublings in this time for control cells, compared with 1 doubling for T2-treated cells.
# (§2) pTpT was previously found to inhibit cell cycle progression, at least in part through activation of p53 and subsequent upregulation of the cyclin dependent kinase inhibitor p21. Cultures of the human keratinocyte line SCC12F were treated with pTpT, SEQ ID NO: 1, SEQ ID NO: 6 or diluent alone as a negative control, collected and counted 48 hours later and processed for northern blot analysis of p21 mRNA expression. […] Thus, the sequences of the present invention activate p53 and inhibit cell proliferation similar to the effect of pTpT.
# Exposure of keratinocytes to UVB irradiation affects the expression of genes involved in cell cycle arrest, DNA repair and cytokine production. Single-stranded oligonucleotides sharing sequence homology with the telomere 3′ overhang, when introduced into cells, mimic these UV effects. To identify other genes that may be similarly modulated, cells of keratinocyte origin (SCC12F; a human epidermal squamous cell carcinoma line provided by Dr. James Rheinwald of Harvard University) were exposed to solar simulated irradiation (SSR) (20 mJ/cm^2, measured at 285±5 nm), to an 11-base oligonucleotide (pGTTAGGGTTAG; SEQ ID NO:5) homologous to the telomere overhang (T-oligo), or to a complementary sequence as control [pCTAACCCTAAC; (SEQ ID NO:9) control oligonucleotide]. […] These are mitochondrial-transcribed genes whose encoded proteins participate in cellular respiration.
# [3] = test system: p21/Waf 1/Cip 1 gene; assay: p21 mRNA Northern blot in SCC12F cells; type: cell-based, human; settings: 48 hours
# Procedure: as §1, §2
# [4] = test system: S91 cells; assay: Cellular uptake of FAM-labeled oligonucleotides in S91 cells; type: in vitro ADME, mouse; settings: 4 hours
# Procedure: Fluorescein phosphoramidite (FAM) labeled oligonucleotides were added to cultures of S91 cells for 4 hours and the cells were then prepared for confocal microscopy. Nuclei, identified by staining with propidium iodide, appeared red and FAM-labeled oligonucleotides appeared green. Co-localization of red and green signals was assigned a yellow color by the computer. […] There was no change in the profile of oligonucleotide uptake after 6 and 24 hours.
# [5] = test system: Jurkat cells; assay: FACS cell cycle / apoptosis analysis of Jurkat cells; type: cell-based, human
# Procedure: Oligonucleotides homologous to the telomere overhang repeat sequence (TTAGGG; SEQ ID NO:11), sequence (11mer-1: pGTTAGGGTTAG; SEQ ID NO: 5), complementary to this sequence (11mer-2: pCTAACCCTAAC; SEQ ID NO: 9) and unrelated to the telomere sequence (11mer-3: pGATCGATCGAT; SEQ ID NO: 10) were added to cultures of Jurkat cells, a line of human T cells, one of the cell types reported to undergo apoptosis in response to telomere disruption. Within 48 hours, 50% of the cells treated with 40 μM of SEQ ID NO: 5 had accumulated in the S phase, compared to 25–30% for control cells (p<0.0003, non-paired t-test; see FIGS. 19A–19D), and by 72 hours, 13% of these cells were apoptotic as determined by a sub-G0/G1 DNA content, compared to 2–3% of controls (p<0.007, non-paired t-test; see FIGS. 19E–19H). At 96 hours, 20±3% of the 11mer-1 treated cells were apoptotic compared with 3–5% of controls (p<0.0001, non-paired t-test). To exclude preferential uptake of the 11mer-1 as an explanation of its singular effects, Jurkat cells were treated with oligonucleotides labeled on the 3′ end with fluorescein phosphoramidite, then subjected to confocal microscopy and FACS analysis. The fluorescence intensity of the cells was the same after all treatments at 4 hours and 24 hours.
# Three DNA oligonucleotides were designed initially: one homologous to the telomere overhang (11mer-1: pGTTAGGGTTAG; SEQ ID NO:5), one complementary to this sequence (11mer-2: pCTAACCCTAAC; SEQ ID NO:9) and one unrelated (11mer-3: pGATCGATCGAT; SEQ ID NO:10). For later experiments, additional 11 base oligonucleotides were designed: one a simple permutation of 11mer-1 (pGGGTTAGGGTT; SEQ ID NO:13), one with the same number of G residues but roughly 50% rather than 100% homology to the overhang (pTAGATGTGGTG; SEQ ID NO:14), and one with roughly 50% overhang homology but also containing cytosine bases (pCGGGCTTATTG; SEQ ID NO:15) (Midland Certified Reagent Company, Midland, Tex.). Cell Sources and Culture Human neonatal fibroblasts were established and cultured as previously described (Eller, M. S., et al., 1997, Proc Natl Acad Sci USA 94: 12627–12632). Fibroblasts from a Nijmegen breakage syndrome (NBS) patient (#GM07166) and an age-matched control (GM03399) were purchased from the NIGMS Human Cell Repository, Coriell Institute for Medical Research, Camden, N.J.) and cultured in DMEM/15% FBS. Saos-2 cells were purchased from the American Type Culture Collection (ATCC; Manassas, Va.). SCC12F cells were the kind gift of Dr. James Rheinwald, Harvard University. Cell Cycle Analysis The established line of human T lymphocytes, termed Jurkat cells (180,000 cells/ml) were plated in RPMI medium 1640 supplemented with 3% FBS (both from GIBCO/BRL, Gaithersburg, Md.). […] Cells were collected up to 96 hours after treatment, stained with propidium iodide and analyzed by FACS using a Becton-Dickinson FacsScan and CellQuest software. Caspase Activity
# Oligonucleotides homologous to the 3′ overhang sequence (11mer-1: pGTTAGGGTTAG; SEQ ID NO:5), complementary to this sequence (11mer-2: pCTAACCCTAAC; SEQ ID NO:9) and unrelated to the telomere sequence (11mer-3: pGATCGATCGAT; SEQ ID NO:10) were synthesized. The three 11mer oligonucleotides were added to cultures of Jurkat cells, an established line of human T lymphocytes, a cell type reported to undergo apoptosis in response to telomere disruption [Karlseder, J., et al, (1999) Science 283, 1321–1325] and DNA damaging ionizing radiation (IR) [Vigorito, E., et al, (1999), Hematol Cell Ther 41, 153–161]. Duplicate cultures of Jurkat cells were treated with a final concentration of 40 μM 11mer-1, -2 or -3, oligonucleotides, or an equal volume of diluent (water) as a control. Cells were collected up to 96 hours after treatment, stained with propidium iodideandanalyzed by FACS. See also Example 13 and FIGS. 19A–19H.
# To further confirm the specificity of these responses to the telomere overhang sequence, three variations were tested. […]
substance,measurement,setting,value
"AGTATGA (DNA, phosphodiester; further chemistry not fully specified) [SEQ ID NO: 3]",increase in melanin content,[1],640%
"CATAC (DNA, phosphodiester; further chemistry not given here) [SEQ ID NO: 6]",reduction of cell number,[2],25%
same,"pigment content increase, of control levels","[1]; 100 μM, 5 days, three experiments",61%±60%
same,"melanin content, of control cells","[1]; 5 days, FIG. 12",165+/−77%
same,increase in p21 mRNA level,[3],10–20%
"CCCTAA (DNA, backbone not given here) [SEQ ID NO: 12]",melanogenic activity,[1],less active
"GAGTATGAG (DNA, phosphodiester; further chemistry not fully specified) [SEQ ID NO: 1 without 5′ phosphorylation]","cellular uptake and localization (confocal microscopy, FACS)",[4],only moderate uptake
"GTATG (DNA, phosphodiester; further chemistry not fully specified) [SEQ ID NO: 4]",increase in melanin content,[1],670%
"TAGGAGGAT (DNA, phosphodiester; further chemistry not fully specified) [SEQ ID NO: 2]",increase in melanin content,[1],800%
TTAGGG (Synthetic DNA Fragment) [SEQ ID NO: 11],melanogenic activity,[1],highly melanogenic
"pCGGGCTTATTG (DNA, 5' {P}, backbone not given here) [SEQ ID NO:15, reference compound]",apoptosis and S-phase arrest,[5]; 10 μM,failed to induce apoptosis and only induced a moderate S-phase arrest
same,apoptotic cells by FACS analysis,"[5]; 10 μM, 72 hours",2%
same,apoptotic cells by FACS analysis,"[5]; 10 μM, 96 hours",2–4%
"pGCATGCATGCATTACGTACG (DNA, 5' {P}, backbone not given here) [SEQ ID NO: 8]",pigmentation relative to control cells,[1]; FIG. 16,twice the level of control cells
same,"cellular uptake and localization (confocal microscopy, FACS)",[4],pattern of fluorescence very similar to that seen with phosphorylated SEQ ID NO: 1
pGGGTTAGGGTT [SEQ ID NO:13],apoptotic cells by FACS analysis,"[5]; 10 μM, 72 hours",13%
same,apoptotic cells by FACS analysis,"[5]; 10 μM, 96 hours",28%
same,activity of the two complete telomere overhang homologs,[5]; separate paired cultures,equal in activity
"pTAGATGTGGTG (DNA, 5' {P}, backbone not given here) [SEQ ID NO:14]",apoptotic cells by FACS analysis,"[5]; 10 μM, 72 hours",10%
same,apoptotic cells by FACS analysis,"[5]; 10 μM, 96 hours",16%
pTspT,melanogenesis,"[1]; 100 μM dinucleotides or 40 μM 11mers, 6 days",did not
same,constitutive pigmentation,"[1]; 100 μM pTspT or 40 μM 11mer-1-S, 6 days or one week",reduced the constitutive pigmentation
same,UV-induced doubling of melanin content,"[1]; 100 μM, 5 mJ/cm^2 solar-simulated light, one week",blocked

# Source: patent publication US7033829B2, “Method to inhibit cell growth using oligonucleotides” (Trustees of Boston University, priority 2000, dated 2006)
